# “Also recorded” adds a separate entry of the source. Where two headings read alike, the source gives them in different places.
# Legend:
# [1] = system: M. haemolytica (OSU-012103-BHI); assay: In vivo bovine lung infection (intratracheal) challenge model
# [2] = system: Lung bacteria isolated at necropsy; assay: MIC of recovered isolates, natural bovine respiratory disease study
# Description: (§3) The primary clinical endpoint for efficacy was treatment failure/success over a 14-day observation period. Clinically normal beef calves (150-200 kg) at moderate risk for BRD were dosed on arrival to the feedlot. Animals (N=114/group) received saline (T01), 5 mg/kg M9 (T02) or 10 mg/kg M9 (T03); or Zactran (T04). […] Bacterial isolates were collected at necropsy and MICs were evaluated (Table 4).
# [3] = PK study, plasma concentration; conditions: 10 mg/kg dose
# natural BRD infection = assay: Natural bovine respiratory disease study; type: in vivo, beef calves; conditions: 14-day observation
# Description: as §3
# [4] = system: M. haemolytica (OSU-012103-BHI); conditions: 10 mg/kg
# CD163 = CD163 expression by flow cytometry, blood of treated cattle; conditions: monocytes/macrophages
# TNF-α = assay: Whole blood assay, LPS stimulation, MSD cytokine detection; type: cell-based; conditions: Bos taurus, fresh whole bovine blood
# [5] = system: Bovine primary cells (PBMCs, PMN/neutrophils) and tissue (trachea, lung) protein homogenates; assay: Binding partner identification (NPOT, mass spectrometry); conditions: as compared to gamithromycin
# Description: To further characterize the direct activity of the compounds of the invention, experiments to identify the drug's direct binding host partners(s) were performed with the aim of identifying the potential biological targets. Bovine primary cells (peripheral blood mononuclear cells [PBMCs] and polymorphonuclear cells [PMN/neutrophils]) and tissue (trachea, lung) protein homogenates were mixed with M9 and the macrolide, gamithromicin as a comparator. Tissue interactions were allowed to form using a heterogeneous assembly method (nematic protein organization technique, NPOT; Inoviem Scientific); and traditional western blots to identify native-structure proteins bound to the compound. Mass spectrometry analysis identified eight proteins involved in the interaction with M9 as compared to gamithromycin. The antibacterial macrolide gamithromycin was used as a comparator to differentiate specific binding to M9. These proteins were considered to be either direct binding partners of the drug or closely involved in the drug:target interaction (Table 6).
# P. multocida = assay: Murine P. multocida intranasal challenge study, survival; type: in vivo, mice; conditions: 5×10^3 CFU/mouse; subcutaneous 18 hours after challenge; tulathromycin 16 mg/kg, M9 32 mg/kg, ceftiofur 9 mg/kg
# IL-1β = assay: Whole blood assay, LPS stimulation, MSD cytokine detection; type: cell-based, bovine; conditions: top dose 500 μM; cellular toxicity signal
# IL-6 = assay: Plasma IL-6 biomarker in bovine M. haemolytica challenge
# upstream regulators = assay: Lung tissue RNA sequence analysis, ingenuity pathway analysis; type: in vivo, mice; conditions: M9 32 mg/kg (T03)
# Description: In one murine P. multocida intranasal challenge study, mice were administered tulathromycin (16 mg/kg; T02), M9 (32 mg/kg; T03), or ceftiofur (9 mg/kg; T04) by subcutaneous injection 18 hours after bacterial challenge (5×10^3 CFU/mouse) for lung tissue RNA sequence analysis. […] Data was analyzed based on the number of genes being modulated in the same direction that were associated with a given upstream regulator. An activation z-score of 2 or greater is considered significant and the direction change is indicated by +(activated) or −(inhibited).
# LCN2 = biological target: T1, LCN2 (Bos taurus, UniProt A0AAA9TIZ6); assay: Surface plasmon resonance (SPR), KD; type: binding; conditions: biologically relevant pH
# T1 sequence (A0AAA9TIZ6 1-200): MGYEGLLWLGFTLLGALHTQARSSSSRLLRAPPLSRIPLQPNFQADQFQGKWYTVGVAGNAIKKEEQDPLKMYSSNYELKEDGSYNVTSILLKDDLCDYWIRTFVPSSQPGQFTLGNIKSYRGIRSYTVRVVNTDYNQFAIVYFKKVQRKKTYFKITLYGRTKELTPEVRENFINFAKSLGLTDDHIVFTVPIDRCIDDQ
# Source text: (§1) In order to add further clarity to binding partner identification, surface plasma resonance (SPR) technology was used. […] These targets were unique to this drug as compared to gamithromycin, a macrolide antibiotic used in the treatment of BRD. Both targets fit the paradigm that the immunological mechanism of action is linked to the pathways that are both of key importance as being dysregulated in BRD and modulated by M9. LCN2 is expressed by neutrophils upon activation of toll-like receptors (TLRs) and is a component of the innate inflammatory response. […] Very little information exists to date on SLAMF9. It is a member of a family of signal adaptor proteins that is thought to lack signal transduction capabilities.
# (§2) KD is the equilibrium dissociation constant that was used to present the drug/target affinity. The identified targets associated with drug were measured by surface plasmon resonance (SPR) to define the KD.
# SLAMF9 = SLAMF9 (Bos taurus, UniProt E1BNF9); assay: Surface plasmon resonance (SPR), KD; type: binding; conditions: biologically relevant pH
# SLAMF9, sequence (E1BNF9 1-289): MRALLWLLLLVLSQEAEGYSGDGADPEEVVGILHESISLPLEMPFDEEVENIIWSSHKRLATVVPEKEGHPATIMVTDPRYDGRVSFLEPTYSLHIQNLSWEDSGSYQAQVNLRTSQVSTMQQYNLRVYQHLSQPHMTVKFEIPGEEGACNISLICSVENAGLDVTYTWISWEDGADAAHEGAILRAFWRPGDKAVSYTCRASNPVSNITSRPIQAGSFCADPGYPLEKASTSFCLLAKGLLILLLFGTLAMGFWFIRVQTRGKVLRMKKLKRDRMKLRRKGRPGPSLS
# Source text: as §1, §2
# [6] = H. somni (25) lung isolates at necropsy
compound,measurement,setting,value
"CCCNC[C@]1(O)[C@H](C)O[C@@H](O[C@H]2[C@H](C)[C@@H](O[C@@H]3O[C@H](C)C[C@H](NC)[C@H]3O)[C@](C)(O)C[C@@H](C)CN[C@H](C)[C@@H](O)[C@](C)(O)[C@@H](CC)OC(=O)[C@@H]2C)C[C@@]1(C)OC [Example M9, (2R,3S,4R,5R,8R,10R,11R,12S,13S,14R)-2-ethyl-3,4,10-trihydroxy-13-(((2R,4R,5S,6S)-5-hydroxy-4-methoxy-4,6-dimethyl-5-((propylamino)methyl)-tetrahydro-2H-pyran-2-yl)oxy)-11-(((2S,3R,4S,6R)-3-hydroxy-6-methyl-4-(methylamino)tetrahydro-2H-pyran-2-yl)oxy)-3,5,8,10,12,14-hexamethyl-1-oxa-6-azacyclopentadecan-15-one]",mortality,"[1]; No challenge, M9 10 mg/kg (T04)",0/6
same,Mortality (%),"[1]; second intratracheal challenge study, 10 mg/kg (T05)",12.5%
same,MIC50,[2]; [6],32 µg/mL
same,MIC90,[2]; [6],32 µg/mL
same,MIC Range,[2]; [6],8 to 64 µg/mL
same,"MIC, BRD bacterial isolates collected at necropsy",[2]; some of the isolates,< 64 µg/mL
same,maximum plasma concentration,[3],5 µg/mL
same,Percent failure (treatment failure),natural BRD infection; 5 mg/kg (T02),19.3%
same,Percent failure (treatment failure),natural BRD infection; 10 mg/kg (T03),8.8%
same,lung lesion scores,[4]; inhaled or nasal,29
same,mortality,"[4]; separate study, vs. saline 38.9%",13%
same,CD163 expression,CD163,suppressed; also recorded: mitigates the pathologic increase
same,IC50,TNF-α,250 µM
same,proteins involved in the interaction,[5],eight
same,Survival at Day 7,P. multocida,~50%
same,overstimulation of IL-1B,IL-1β,> 500 µM
same,IL-6 levels,IL-6,significantly reduced
same,"activation z-score, IFNγ",upstream regulators,−5.759
same,"activation z-score, IL-1β",upstream regulators,−5.947
same,"activation z-score, STAT1",upstream regulators,−2.787
same,"activation z-score, TNF",upstream regulators,−4.669
same,"activation z-score, lipopolysaccharide",upstream regulators,−6.725
same,"activation z-score, poly rl:rC-RNA",upstream regulators,−5.289
same,unique genes up or down regulated (with significance),upstream regulators; total lung tissue,at least 226
same,"drug/target binding, LCN2",LCN2,direct binding targets
same,"drug/target binding, SLAMF9",SLAMF9,direct binding targets
